In general, melting point refers to the temperature, or range, at which the solid turns liquid. As for `CC(=O)OCC1OC(n2c(Cl)nc3cc(Br)c(Br)cc32)C(OC(C)=O)C1OC(C)=O` (stereo not drawn), the melting point lay in the range of 140 to 142 °C.
The same measure for `CON(Cc1nc2c(N)nc(C)c(C)c2n1CC(C)C)C(=O)C1CC1`: 135 to 137 °C; for `O=C(Nc1ccc(F)cc1F)C1C(=O)N2c3ccccc3Sc3cccc1c32` (stereo not drawn): 208 to 209 °C.
Molecule `COc1cccc(Oc2c(NS(=O)(=O)c3ccc(C(C)(C)C)cc3)ncnc2OCCOc2ccncn2)c1` registered a melting point of 149 to 150 °C.
The same measure for `O=C1NC(O)c2cc(Br)ccc21` (stereo not drawn): 258 to 261 °C; for `CC(C)C(C)(C(N)=O)N1C(=O)c2ccc3ccsc3c2C1=O` (stereo not drawn): 199 to 200 °C.
`O=C(Nc1ccc(-n2nc(C(F)(F)F)cc2C2CC2)nc1)c1cccc(F)c1F` came in with a melting point of 151 to 156 °C.
With `COCCn1nc2c(N)nc3ccccc3c2c1CC(C)(C)N` the figure was 199 to 200 °C; with `Nc1cccc(OCc2ccccc2)c1N`, 68 °C.
With `COc1ccc2[nH]c3c(C)nc4c(c3c2c1)C(=O)CC(C)(C)C4` the figure was 241 to 243 °C.
With `CCOC(=O)c1cnn2c1c(NC1CCCCCC1)nc1ccccc12` the figure was 114 to 115 °C.
The molecule `CCCc1nn(-c2ccc(C(F)(F)F)cn2)cc1CCCOc1c(C)cccc1CC(=O)O` yielded a melting point of 134 to 135 °C.
With `O=C1CCC2c3ccccc3CCC2N1` (stereo not drawn) the figure was 227 to 228 °C.
As for `Cc1cc(Nc2ccnc(Nc3ccc(S(=O)(=O)N(CCNC(=O)OC(C)(C)C)C4CCN(C(=O)OC(C)(C)C)CC4)cc3)n2)ccc1F`, the melting point lay in the range of 242 to 244 °C.
With `CCC(=O)CCSc1cc(C(C)(C)C)c(O)c(C(C)(C)C)c1` the figure was 76 to 79 °C; with `O=C(CCl)Oc1ccccc1O`, 32 to 35 °C; with `COC(=O)c1ccc(NC(=O)CC(=O)C(C)C)cc1`, 54 to 56 °C.
Turning to `CCOC(=O)c1cn(-c2nc(F)c(F)c(NC(C)(C)C)c2F)c2c(Cl)c(F)c(F)cc2c1=O`, the melting point was in the range of 145 to 146 °C.
With `CC(=O)OC1CSC(Oc2cccc(I)c2)C(OC(C)=O)C1OC(C)=O` (stereo not drawn) the figure was 127 °C.
With `CC(=O)c1c(-c2ccsc2)sc(-c2ccncc2)c1C` the figure was 98 to 100 °C.
With `Cc1ccc2[nH]c(=O)n(CCCN3CCN(C(c4ccccc4)c4ccccc4)CC3)c2c1` the figure was 196 °C; with `Cc1ccc(S(=O)(=O)NCC(CC(=O)Nc2ccc(C(=O)O)cc2)c2ccc(Cl)cc2)cc1` (stereo not drawn), 250 to 252 °C.
`CCCN(Cc1ccc(-c2ccccc2-c2nc(=S)o[nH]2)cc1)c1nc(C)ncc1C(=O)OCC` showed a melting point of 170 to 172 °C.
`COC(=O)c1ccc(C(C)(O)c2cc3cc(C(F)(F)F)ccc3n2S(=O)(=O)c2cccc(C(C)(C)C)c2)cc1` (stereo not drawn) gave a melting point of 70 °C.
In turn, `CNC(=O)c1ccc(C=CC(=O)NCC(=O)N(C)c2ccc(C)c(COc3cccc4c3nc(S)n4C)c2C)cc1` returned a melting point of 278 to 292 °C.
In the case of `c1ccc2c(c1)ccc1cnsc12`, the melting point was determined as 52 °C.
With `CCN1CCN(C(=O)c2ccc(-c3cc(-c4n[nH]cc4-c4cccc(C)n4)ccn3)cc2)CC1` the figure was 126 °C; with `COC(=O)c1ccc(OCC(=O)c2ccc3c(c2)C(C)(C)CCS3)cc1O`, 135 to 137 °C; with `N#Cc1cnn(-c2c(Cl)cc(C(F)(F)F)c(Cl)c2Cl)c1N`, 186 to 187 °C.
The same measure for `CN1CCC2(CC1)NC(c1ccccc1)c1cc(Cl)ccc1N(C)C2=O` (stereo not drawn): 196 °C; for `CCOC(=O)c1c(-c2ccccc2Cl)c2cc(CC)ccc2[nH]c1=O`: 199 to 200 °C; for `CCN(c1cccc(C(=O)Nc2cc(NC(=O)c3cccc(N4CCOCC4)c3)ccc2C)c1)S(C)(=O)=O`: 192 to 193 °C.
With `CC(C)(C)c1cnc(C(=O)Nc2cc(-c3cc(Nc4ccc(-c5ccncc5)nn4)c(=O)[nH]n3)ccc2F)cn1` the figure was more than 300 °C.

The values above are taken from a melting point compilation (Tetko et al.; mined from patent text by program, amines drawn as free bases though some values may be those of a salt).
